Results from PubChem BioAssay (NCI).
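Five compound concentrations were applied to cells in 96-well plates for 48 hours; endpoints were derived by simple linear interpolation of the resulting dose-response curve. The concentration for 50% growth inhibition is given as GI50. TGI is the concentration that stops growth completely.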

Columns and labels:
Assay in all cases: NCI-60 cell line screen, 48 h; in the data active = GI50 below about 0.43 µM; inactive = the rest
786-0 renal = system: 786-0 renal
A549 NSCLC = system: A549 NSCLC
ACHN renal = system: ACHN renal
CCRF-CEM leukemia = system: CCRF-CEM leukemia
COLO 205 colon = system: COLO 205 colon
DLD-1 colon = system: DLD-1 colon
DMS 273 small cell lung = system: DMS 273 small cell lung
EKVX NSCLC = system: EKVX NSCLC
HCC-2998 colon = system: HCC-2998 colon
HCT-116 colon = system: HCT-116 colon
HCT-15 colon = system: HCT-15 colon
HL-60(TB) leukemia = system: HL-60(TB) leukemia
HOP-62 NSCLC = system: HOP-62 NSCLC
HOP-92 NSCLC = system: HOP-92 NSCLC
HT29 colon = system: HT29 colon
IGROV1 ovarian = system: IGROV1 ovarian
K-562 leukemia = system: K-562 leukemia
KM12 colon = system: KM12 colon
KM20L2 colon = system: KM20L2 colon
LOX IMVI melanoma = system: LOX IMVI melanoma
LXFL 529 NSCLC = system: LXFL 529 NSCLC
M14 melanoma = system: M14 melanoma
M19-MEL melanoma = system: M19-MEL melanoma
MALME-3M melanoma = system: MALME-3M melanoma
MOLT-4 leukemia = system: MOLT-4 leukemia
NCI-H226 lung = system: NCI-H226 lung
NCI-H23 lung = system: NCI-H23 lung
NCI-H460 lung = system: NCI-H460 lung
NCI-H522 lung = system: NCI-H522 lung
OVCAR-3 ovarian = system: OVCAR-3 ovarian
OVCAR-4 ovarian = system: OVCAR-4 ovarian
OVCAR-8 ovarian = system: OVCAR-8 ovarian
RXF 393 renal = system: RXF 393 renal
SF-268 CNS = system: SF-268 CNS
SF-295 CNS = system: SF-295 CNS
SF-539 CNS = system: SF-539 CNS
SK-MEL-2 melanoma = system: SK-MEL-2 melanoma
SK-MEL-28 melanoma = system: SK-MEL-28 melanoma
SK-MEL-5 melanoma = system: SK-MEL-5 melanoma
SK-OV-3 ovarian = system: SK-OV-3 ovarian
SN12C renal = system: SN12C renal
SNB-19 CNS = system: SNB-19 CNS
SNB-75 CNS = system: SNB-75 CNS
SNB-78 CNS = system: SNB-78 CNS
SR leukemia = system: SR leukemia
SW-620 colon = system: SW-620 colon
TK-10 renal = system: TK-10 renal
U251 CNS = system: U251 CNS
UACC-257 melanoma = system: UACC-257 melanoma
UACC-62 melanoma = system: UACC-62 melanoma
UO-31 renal = system: UO-31 renal
XF 498 CNS = system: XF 498 CNS
CAKI-1 renal = system: CAKI-1 renal
DMS 114 small cell lung = system: DMS 114 small cell lung
HOP-18 NSCLC = system: HOP-18 NSCLC
OVCAR-5 ovarian = system: OVCAR-5 ovarian
A498 renal = system: A498 renal
BT-549 breast = system: BT-549 breast
DU-145 prostate = system: DU-145 prostate
HS 578T breast = system: HS 578T breast
MCF7 breast = system: MCF7 breast
MDA-MB-231 breast = system: MDA-MB-231 breast
MDA-MB-435 = system: MDA-MB-435
MDA-N = system: MDA-N
NCI/ADR-RES ovarian = system: NCI/ADR-RES ovarian
PC-3 prostate = system: PC-3 prostate
RPMI-8226 leukemia = system: RPMI-8226 leukemia
T-47D breast = system: T-47D breast

CC(=O)NC1=C(NCCC(C)C)C(=O)c2ccccc2C1=O
> 50 µM: TGI (786-0 renal) | TGI (A549 NSCLC) | TGI (ACHN renal) | TGI (CCRF-CEM leukemia) | TGI (COLO 205 colon) | TGI (DLD-1 colon) | TGI (DMS 273 small cell lung) | TGI (EKVX NSCLC) | TGI (HCC-2998 colon) | TGI (HCT-116 colon) | TGI (HCT-15 colon) | TGI (HL-60(TB) leukemia) | TGI (HOP-62 NSCLC) | TGI (HOP-92 NSCLC) | TGI (HT29 colon) | TGI (IGROV1 ovarian) | TGI (K-562 leukemia) | TGI (KM12 colon) | TGI (KM20L2 colon) | TGI (LOX IMVI melanoma) | TGI (LXFL 529 NSCLC) | TGI (M14 melanoma) | TGI (M19-MEL melanoma) | TGI (MALME-3M melanoma) | TGI (MOLT-4 leukemia) | TGI (NCI-H226 lung) | TGI (NCI-H23 lung) | TGI (NCI-H460 lung) | TGI (NCI-H522 lung) | TGI (OVCAR-3 ovarian) | TGI (OVCAR-4 ovarian) | TGI (OVCAR-8 ovarian) | TGI (RXF 393 renal) | TGI (SF-268 CNS) | TGI (SF-295 CNS) | TGI (SF-539 CNS) | TGI (SK-MEL-2 melanoma) | TGI (SK-MEL-28 melanoma) | TGI (SK-MEL-5 melanoma) | TGI (SK-OV-3 ovarian) | TGI (SN12C renal) | TGI (SNB-19 CNS) | TGI (SNB-75 CNS) | TGI (SNB-78 CNS) | TGI (SR leukemia) | TGI (SW-620 colon) | TGI (TK-10 renal) | TGI (U251 CNS) | TGI (UACC-257 melanoma) | TGI (UACC-62 melanoma) | TGI (UO-31 renal) | TGI (XF 498 CNS)

COc1ccc(C(=O)C(C(=O)CCC(=O)Nc2ccc(C)c(C)c2)c2ccc(OC)cc2)cc1 (configuration not stated)
> 100 µM: TGI (CAKI-1 renal) | TGI (COLO 205 colon) | TGI (DMS 114 small cell lung) | TGI (DMS 273 small cell lung) | TGI (HCC-2998 colon) | TGI (HCT-116 colon) | TGI (HCT-15 colon) | TGI (HL-60(TB) leukemia) | TGI (HOP-18 NSCLC) | TGI (HOP-62 NSCLC) | TGI (HOP-92 NSCLC) | TGI (HT29 colon) | TGI (KM12 colon) | TGI (KM20L2 colon) | TGI (LOX IMVI melanoma) | TGI (LXFL 529 NSCLC) | TGI (M14 melanoma) | TGI (M19-MEL melanoma) | TGI (MALME-3M melanoma) | TGI (NCI-H226 lung) | TGI (NCI-H460 lung) | TGI (OVCAR-3 ovarian) | TGI (OVCAR-4 ovarian) | TGI (OVCAR-5 ovarian) | TGI (OVCAR-8 ovarian) | TGI (SF-295 CNS) | TGI (SK-MEL-2 melanoma) | TGI (SN12C renal) | TGI (SR leukemia) | TGI (SW-620 colon) | TGI (UACC-257 melanoma) | TGI (UO-31 renal)

Nc1ccccc1SC(C[N+](=O)[O-])c1ccc2c(c1)OCO2 (configuration not stated)
26.6 µM: TGI (CAKI-1 renal)
28.3 µM: TGI (NCI-H522 lung)
3.17 µM: TGI (HCC-2998 colon)
36.8 µM: TGI (HS 578T breast)
4.42 µM: TGI (RPMI-8226 leukemia)
8.53 µM: TGI (U251 CNS)
15.3 µM: TGI (SK-MEL-5 melanoma)
29.8 µM: TGI (MALME-3M melanoma)
73 µM: TGI (NCI/ADR-RES ovarian)
19 µM: TGI (ACHN renal)
20.7 µM: TGI (SF-268 CNS)
3.81 µM: TGI (HT29 colon)
3.71 µM: TGI (HCT-116 colon)
20.6 µM: TGI (A498 renal) | TGI (PC-3 prostate)
7.74 µM: TGI (SW-620 colon)
27.7 µM: TGI (SK-MEL-2 melanoma)
3.15 µM: TGI (786-0 renal) | TGI (M14 melanoma)
15.9 µM: TGI (SK-OV-3 ovarian)
11.3 µM: TGI (SK-MEL-28 melanoma)
4.82 µM: TGI (SR leukemia)
25.9 µM: TGI (UACC-62 melanoma)
3.2 µM: TGI (IGROV1 ovarian)
3.68 µM: TGI (LOX IMVI melanoma)
9.85 µM: TGI (OVCAR-5 ovarian)
10.3 µM: TGI (HCT-15 colon)
8.68 µM: TGI (A549 NSCLC)
4.98 µM: TGI (SF-539 CNS)
24.3 µM: TGI (SNB-19 CNS)
15.2 µM: TGI (BT-549 breast)
7.09 µM: TGI (SNB-75 CNS) | TGI (TK-10 renal)
3.33 µM: TGI (RXF 393 renal)
30.2 µM: TGI (HOP-92 NSCLC)
4.6 µM: TGI (HL-60(TB) leukemia)
11 µM: TGI (OVCAR-8 ovarian)
3.32 µM: TGI (UO-31 renal)
6.66 µM: TGI (MOLT-4 leukemia)
7 µM: TGI (K-562 leukemia)
4.75 µM: TGI (NCI-H460 lung)
4.63 µM: TGI (MDA-N)
32.4 µM: TGI (NCI-H226 lung)
3.86 µM: TGI (UACC-257 melanoma)
9.35 µM: TGI (MDA-MB-435)
20 µM: TGI (MDA-MB-231 breast)
13.3 µM: TGI (EKVX NSCLC)
8.77 µM: TGI (DU-145 prostate)
4.38 µM: TGI (HOP-62 NSCLC)
8.04 µM: TGI (NCI-H23 lung)
18.8 µM: TGI (SF-295 CNS)
13.7 µM: TGI (COLO 205 colon)
14.3 µM: TGI (SN12C renal)
6.31 µM: TGI (KM12 colon)
23.8 µM: TGI (OVCAR-4 ovarian)
12.4 µM: TGI (MCF7 breast) | TGI (OVCAR-3 ovarian)
25.8 µM: TGI (T-47D breast)

N.N.N.N.O=[N+]([O-])[O-].[Co+3].[N-]=[N+]=[N-].[N-]=[N+]=[N-]
inactive: GI50 (DLD-1 colon) > 100 µM | GI50 (DMS 273 small cell lung) > 100 µM | GI50 (KM20L2 colon) > 100 µM | GI50 (LXFL 529 NSCLC) > 100 µM | GI50 (SNB-78 CNS) > 100 µM
> 100 µM: TGI (786-0 renal) | TGI (A498 renal) | TGI (A549 NSCLC) | TGI (ACHN renal) | TGI (CCRF-CEM leukemia) | TGI (COLO 205 colon) | TGI (DLD-1 colon) | TGI (DMS 273 small cell lung) | TGI (EKVX NSCLC) | TGI (HCC-2998 colon) | TGI (HCT-116 colon) | TGI (HCT-15 colon) | TGI (HL-60(TB) leukemia) | TGI (HOP-62 NSCLC) | TGI (HOP-92 NSCLC) | TGI (HT29 colon) | TGI (IGROV1 ovarian) | TGI (K-562 leukemia) | TGI (KM12 colon) | TGI (KM20L2 colon) | TGI (LOX IMVI melanoma) | TGI (LXFL 529 NSCLC) | TGI (M14 melanoma) | TGI (MALME-3M melanoma) | TGI (MOLT-4 leukemia) | TGI (NCI-H23 lung) | TGI (NCI-H460 lung) | TGI (NCI-H522 lung) | TGI (OVCAR-3 ovarian) | TGI (OVCAR-4 ovarian) | TGI (OVCAR-5 ovarian) | TGI (OVCAR-8 ovarian) | TGI (RPMI-8226 leukemia) | TGI (SF-268 CNS) | TGI (SF-295 CNS) | TGI (SF-539 CNS) | TGI (SK-MEL-2 melanoma) | TGI (SK-MEL-28 melanoma) | TGI (SK-MEL-5 melanoma) | TGI (SK-OV-3 ovarian) | TGI (SN12C renal) | TGI (SNB-19 CNS) | TGI (SNB-75 CNS) | TGI (SNB-78 CNS) | TGI (SW-620 colon) | TGI (TK-10 renal) | TGI (U251 CNS) | TGI (UACC-257 melanoma) | TGI (UACC-62 melanoma) | TGI (UO-31 renal)
